Measurements reported in ChEMBL document CHEMBL1811903, “Protective role of 14-deoxy-11,12-didehydroandrographolide, a noncytotoxic analogue of andrographolide, in allergic airway inflammation” (J Nat Prod, 2011).

How the values were obtained:
Format in all cases: cell-based
RBL-2H3 [1] = test: Cytotoxicity against rat RBL2H3 cells assessed as reduction in cell viability at 3 to 120 uM by MTS assay; settings: rbl-2h3, 120 µM, TDE = time-dependent effect
A549 [2] = test: Cytotoxicity against human A549 cells assessed as reduction in cell viability at 3 to 120 uM by MTS assay; settings: a549, 120 µM, TDE = time-dependent effect
[3] = Cytotoxicity against human BEAS2B cells assessed as reduction in cell viability at 3 to 120 uM by MTS assay; settings: beas-2b, TDE = time-dependent effect
RBL-2H3 [4] = test: Cytotoxicity against rat RBL2H3 cells assessed as reduction in cell viability after 48 hrs by MTS assay; settings: rbl-2h3, 48 h
RBL-2H3 [5] = test: Cytotoxicity against rat RBL2H3 cells assessed as reduction in cell viability after 24 hrs by MTS assay; settings: rbl-2h3, 24 h
[6] = Cytotoxicity against human BEAS2B cells assessed as reduction in cell viability after 24 hrs by MTS assay; settings: beas-2b
[7] = Cytotoxicity against human BEAS2B cells assessed as reduction in cell viability after 48 hrs by MTS assay; settings: beas-2b
A549 [8] = test: Cytotoxicity against human A549 cells assessed as reduction in cell viability after 24 hrs by MTS assay; settings: a549, 24 h
A549 [9] = test: Cytotoxicity against human A549 cells assessed as reduction in cell viability after 48 hrs by MTS assay; settings: a549, 48 h

With `C=C1CC[C@@H]2[C@](C)(CO)[C@H](O)CC[C@@]2(C)[C@@H]1C/C=C1/C(=O)OC[C@H]1O` [ANDROGRAPHOLIDE] the Activity (RBL-2H3 [1]) was “tde”, the Activity (A549 [2]) was “tde” and the Activity [3] was “tde”. For the same compound, the Activity (RBL-2H3 [4]) was “Dose-dependent effect”, the Activity (RBL-2H3 [5]) was “Dose-dependent effect” and the Activity [6] was “Dose-dependent effect”. The Activity [7] was “Dose-dependent effect”, the Activity (A549 [8]) was “Dose-dependent effect” and the Activity (A549 [9]) was “Dose-dependent effect”.
